Results reported in patent US9833497B2, “Human originated EGF domain proteins and use of the same” (CHENGDU SOURCEBIO LIMITED-LIABILITY COMPANY, priority 2013, dated 2017).

What was measured:
Type in all cases: cell-based
Proteus mirabilis = test: MIC against Gram-negative bacteria: Proteus mirabilis
In short: (§1)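 Purified recombinant human EGF domain proteins are tested by broth dilution in LB against a 5×10^5 CFU/mL inoculum, with two-fold serial dilutions run in triplicate. Plates are incubated at 37° C with shaking, and the MIC is read as the lowest protein concentration without growth.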

Citrobacter diversus = test: MIC against Gram-negative bacteria: Citrobacter diversus
In short: as §1

E. coli DH5α = test: Antibacterial activity: MIC and growth curve against E. coli DH5α in 96-well plate; conditions: minimal inhibitory concentration against E. coli DH5α; 96-well plate, 5×10^5 CFU/mL, 37° C., judged after 8 h
In short: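 MIC taken as lowest protein level with no bacterial growth, tracked by A600 every 30 min during 37 °C, 175 rpm culture. Two-fold protein series 50-12.5 μg/mL final, triplicate wells, against 5×10^5 CFU/mL of LB-washed mid-log cells.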

Proteus vulgaris = test: MIC against Gram-negative bacteria: Proteus vulgaris
In short: as §1

E. coli BL21 = test: MIC against Gram-negative bacteria: E. coli BL21; conditions: for MIC (μg/mL) E. coli BL21 / MIC / MIC against E. coli BL21: E. coli BL21
In short: as §1

Klebsiella pneumonia = test: MIC against Gram-negative bacteria: Klebsiella pneumonia
In short: as §1

Serratia marcescens = test: MIC against Gram-negative bacteria: Serratia marcescens
In short: as §1

Pseudomonas aeruginosa = test: MIC against Gram-negative bacteria: Pseudomonas aeruginosa
In short: as §1

Moraxella catarrhalis = test: MIC against Gram-negative bacteria: Moraxella catarrhalis
In short: as §1

Enterobacter cloacae = test: MIC against Gram-negative bacteria: Enterobacter cloacae
In short: as §1

Aeromonas hydrophila = test: MIC against Gram-negative bacteria: Aeromonas hydrophila
In short: as §1

[1] = Proteus mirabilis, 96-well plate, 5×10^5 CFU/mL, 37° C., 10 h
[2] = Citrobacter diversus, 96-well plate, 5×10^5 CFU/mL, 37° C., 10 h
[3] = Proteus vulgaris, 96-well plate, 5×10^5 CFU/mL, 37° C., 10 h
[4] = 96-well plate, 5×10^5 CFU/mL, 37° C., 10 h
[5] = Klebsiella pneumonia, 96-well plate, 5×10^5 CFU/mL, 37° C., 10 h
[6] = Serratia marcescens, 96-well plate, 5×10^5 CFU/mL, 37° C., 10 h
[7] = Pseudomonas aeruginosa, 96-well plate, 5×10^5 CFU/mL, 37° C., 10 h
[8] = Moraxella catarrhalis, 96-well plate, 5×10^5 CFU/mL, 37° C., 10 h
[9] = Enterobacter cloacae, 96-well plate, 5×10^5 CFU/mL, 37° C., 10 h
[10] = Aeromonas hydrophila, 96-well plate, 5×10^5 CFU/mL, 37° C., 10 h
[11] = P. mirabilis, 10 h cultivation at 37° C., 5×10^5 CFU/mL
[12] = C. diversus, 10 h cultivation at 37° C., 5×10^5 CFU/mL
[13] = P. vulgaris, 10 h cultivation at 37° C., 5×10^5 CFU/mL
[14] = 10 h cultivation at 37° C., 5×10^5 CFU/mL
[15] = K. pneumonia, 10 h cultivation at 37° C., 5×10^5 CFU/mL
[16] = S. marcescens, 10 h cultivation at 37° C., 5×10^5 CFU/mL
[17] = P. aeruginosa, 10 h cultivation at 37° C., 5×10^5 CFU/mL
[18] = M. catarrhalis, 10 h cultivation at 37° C., 5×10^5 CFU/mL
[19] = E. cloacae, 10 h cultivation at 37° C., 5×10^5 CFU/mL
[20] = A. hydrophila, 10 h cultivation at 37° C., 5×10^5 CFU/mL
[21] = P. mirabilis, 10 h cultivation at 37° C.
[22] = C. diversus, 10 h cultivation at 37° C.
[23] = P. vulgaris, 10 h cultivation at 37° C.
[24] = K. pneumonia, 10 h cultivation at 37° C.
[25] = S. marcescens, 10 h cultivation at 37° C.
[26] = P. aeruginosa, 10 h cultivation at 37° C.
[27] = M. catarrhalis, 10 h cultivation at 37° C.
[28] = E. cloacae, 10 h cultivation at 37° C.
[29] = A. hydrophila, 10 h cultivation at 37° C.
[30] = 10 h cultivation at 37° C., 5×10^5 CFU/mL, two-fold serial dilution

PRT78 (KKNVCDSNTCHNGGTCVNQWDAFSCECPLGFGGKSCA; listed as Homo sapiens)
50 µg/mL: MIC (μg/mL) P. mirabilis (Proteus mirabilis; [1]) | MIC (μg/mL) C. diversus (Citrobacter diversus; [2]) | MIC (E. coli DH5α) | MIC (μg/mL) P. vulgaris (Proteus vulgaris; [3]) | MIC (μg/mL) P. aeruginosa (Pseudomonas aeruginosa; [7]) | MIC (μg/mL) M. catarrhalis (Moraxella catarrhalis; [8]) | MIC (μg/mL) E. cloacae (Enterobacter cloacae; [9])
12.5 µg/mL: MIC (μg/mL) S. marcescens (Serratia marcescens; [6])
25 µg/mL: MIC (μg/mL) E. coli BL21 (E. coli BL21; [4]) | MIC (μg/mL) K. pneumonia (Klebsiella pneumonia; [5]) | MIC (μg/mL) A. hydrophila (Aeromonas hydrophila; [10])

PRT747 (DIDECKDPDACSQICVNYKGYFKCECYPGYEMDLLTKNCK; listed as Homo sapiens)
25 µg/mL: MIC (μg/mL) P. vulgaris (Proteus vulgaris; [13])
50 µg/mL: MIC (μg/mL) P. mirabilis (Proteus mirabilis; [11]) | MIC (μg/mL) C. diversus (Citrobacter diversus; [12]) | MIC (E. coli DH5α) | MIC (μg/mL) E. coli BL21 (E. coli BL21; [14])
12.5 µg/mL: MIC (μg/mL) K. pneumonia (Klebsiella pneumonia; [15]) | MIC (μg/mL) S. marcescens (Serratia marcescens; [16]) | MIC (μg/mL) P. aeruginosa (Pseudomonas aeruginosa; [17]) | MIC (μg/mL) M. catarrhalis (Moraxella catarrhalis; [18]) | MIC (μg/mL) E. cloacae (Enterobacter cloacae; [19]) | MIC (μg/mL) A. hydrophila (Aeromonas hydrophila; [20])

PRT1034 (DENECEQNNGGCSEICVNLKNSYRCECGVGRVLRSDGKTCE; listed as Homo sapiens)
50 µg/mL: MIC (Proteus mirabilis; [21]) | MIC (Citrobacter diversus; [22]) | MIC (E. coli BL21; 10 h cultivation at 37° C.) | MIC (Serratia marcescens; [25]) | MIC (Enterobacter cloacae; [28]) | MIC (Aeromonas hydrophila; [29])
25 µg/mL: MIC (E. coli DH5α) | MIC (Pseudomonas aeruginosa; [26])
12.5 µg/mL: MIC (Proteus vulgaris; [23]) | MIC (Klebsiella pneumonia; [24]) | MIC (Moraxella catarrhalis; [27])

PRT1316 (ELPVCQELRCPQNTQCSAEAPSCRCLPGYTQQGSE; listed as Homo sapiens)
12.5 µg/mL: MIC against P. mirabilis (Proteus mirabilis; [1]) | MIC against C. diversus (Citrobacter diversus; [2]) | MIC against E. coli BL21 (E. coli BL21; [4]) | MIC against S. marcescens (Serratia marcescens; [6]) | MIC against E. cloacae (Enterobacter cloacae; [9])
50 µg/mL: MIC (E. coli DH5α) | MIC against P. vulgaris (Proteus vulgaris; [3]) | MIC against P. aeruginosa (Pseudomonas aeruginosa; [7]) | MIC against M. catarrhalis (Moraxella catarrhalis; [8]) | MIC against A. hydrophila (Aeromonas hydrophila; [10])
25 µg/mL: MIC against K. pneumonia (Klebsiella pneumonia; [5])

PRT1285 (NQDDCRDHRCQNGAQCMDEVNSYSCLCAEGYSGQLCE; listed as Homo sapiens)
100 µg/mL: MIC against K. pneumonia (Klebsiella pneumonia; [5])
12.5 µg/mL: MIC against C. diversus (Citrobacter diversus; [2]) | MIC (E. coli DH5α) | MIC against P. vulgaris (Proteus vulgaris; [3]) | MIC against E. coli BL21 (E. coli BL21; [4]) | MIC against P. aeruginosa (Pseudomonas aeruginosa; [7]) | MIC against E. cloacae (Enterobacter cloacae; [9])
25 µg/mL: MIC against M. catarrhalis (Moraxella catarrhalis; [8]) | MIC against A. hydrophila (Aeromonas hydrophila; [10])
50 µg/mL: MIC against P. mirabilis (Proteus mirabilis; [1]) | MIC against S. marcescens (Serratia marcescens; [6])

PRT1174 (DLNYCGTHQPCLNGGTCSNTGPDKYQCSCPEGYSGPNCE; listed as Homo sapiens)
50 µg/mL: MIC E. coli BL21 (E. coli BL21; [30]) | MIC K. pneumonia (Klebsiella pneumonia; [30]) | MIC S. marcescens (Serratia marcescens; [30]) | MIC M. catarrhalis (Moraxella catarrhalis; [30]) | MIC A. hydrophila (Aeromonas hydrophila; [30])
25 µg/mL: MIC P. vulgaris (Proteus vulgaris; [30])
12.5 µg/mL: MIC P. mirabilis (Proteus mirabilis; [30]) | MIC C. diversus (Citrobacter diversus; [30]) | MIC (E. coli DH5α) | MIC P. aeruginosa (Pseudomonas aeruginosa; [30]) | MIC E. cloacae (Enterobacter cloacae; [30])

PRT398 (DDNECHAQPDLCVNGRCVNTAGSFRCDCDEGFQPSPTLTECH; listed as Homo sapiens)
50 µg/mL: MIC (Citrobacter diversus; [12]) | MIC (E. coli DH5α) | MIC (Pseudomonas aeruginosa; [17]) | MIC (Enterobacter cloacae; [19])
100 µg/mL: MIC (Serratia marcescens; [16])
12.5 µg/mL: MIC (Proteus mirabilis; [11]) | MIC (Proteus vulgaris; [13]) | MIC (E. coli BL21; [14]) | MIC (Klebsiella pneumonia; [15]) | MIC (Moraxella catarrhalis; [18]) | MIC (Aeromonas hydrophila; [20])

PRT1449 (ACAPGHFGADCRLQCQCQNGGTCDRFSGCVCPSGWHGVHCE; listed as Homo sapiens)
12.5 µg/mL: MIC against P. vulgaris (Proteus vulgaris; Proteus vulgaris, 5×10^5 CFU/mL, 10 h cultivation at 37° C.) | MIC against P. aeruginosa (Pseudomonas aeruginosa; Pseudomonas aeruginosa, 5×10^5 CFU/mL, 10 h cultivation at 37° C.) | MIC against M. catarrhalis (Moraxella catarrhalis; Moraxella catarrhalis, 5×10^5 CFU/mL, 10 h cultivation at 37° C.) | MIC against E. cloacae (Enterobacter cloacae; Enterobacter cloacae, 5×10^5 CFU/mL, 10 h cultivation at 37° C.)
25 µg/mL: MIC against E. coli BL21 (E. coli BL21; 5×10^5 CFU/mL, 10 h cultivation at 37° C.) | MIC against A. hydrophila (Aeromonas hydrophila; Aeromonas hydrophila, 5×10^5 CFU/mL, 10 h cultivation at 37° C.)
50 µg/mL: MIC against P. mirabilis (Proteus mirabilis; Proteus mirabilis, 5×10^5 CFU/mL, 10 h cultivation at 37° C.) | MIC against C. diversus (Citrobacter diversus; Citrobacter diversus, 5×10^5 CFU/mL, 10 h cultivation at 37° C.) | MIC (E. coli DH5α) | MIC against K. pneumonia (Klebsiella pneumonia; Klebsiella pneumonia, 5×10^5 CFU/mL, 10 h cultivation at 37° C.) | MIC against S. marcescens (Serratia marcescens; Serratia marcescens, 5×10^5 CFU/mL, 10 h cultivation at 37° C.)

PRT1006 (PLSSCQKAALSQGIDVSSLCHNGGLCVDSGPSYFCHCPPGFQGSLCQ; listed as Homo sapiens)
25 µg/mL: MIC (Proteus mirabilis; [21]) | MIC (Citrobacter diversus; [22]) | MIC (Serratia marcescens; [25])
12.5 µg/mL: MIC (E. coli DH5α) | MIC (Pseudomonas aeruginosa; [26]) | MIC (Moraxella catarrhalis; [27]) | MIC (Enterobacter cloacae; [28])
50 µg/mL: MIC (Proteus vulgaris; [23]) | MIC (E. coli BL21; 10 h cultivation at 37° C.) | MIC (Klebsiella pneumonia; [24]) | MIC (Aeromonas hydrophila; [29])

PRT838 (GLQECSAYCGSHGTCASPLGPCRCEPGFLGRACD; listed as Homo sapiens)
50 µg/mL: MIC (E. coli DH5α) | MIC (μg/mL) P. aeruginosa (Pseudomonas aeruginosa; [17]) | MIC (μg/mL) A. hydrophila (Aeromonas hydrophila; [20])
12.5 µg/mL: MIC (μg/mL) P. vulgaris (Proteus vulgaris; [13]) | MIC (μg/mL) E. coli BL21 (E. coli BL21; [14]) | MIC (μg/mL) K. pneumonia (Klebsiella pneumonia; [15]) | MIC (μg/mL) M. catarrhalis (Moraxella catarrhalis; [18])
25 µg/mL: MIC (μg/mL) P. mirabilis (Proteus mirabilis; [11]) | MIC (μg/mL) C. diversus (Citrobacter diversus; [12]) | MIC (μg/mL) S. marcescens (Serratia marcescens; [16]) | MIC (μg/mL) E. cloacae (Enterobacter cloacae; [19])
